Values quoted from earlier work in publication PMC6376154 (International Journal for Parasitology: Drugs and Drug …, 2019).
pEC50: −log10 of the molar value. Where two headings read alike, the source gives them in different places.

Test system: P. falciparum 3D7 asexual blood stage
Settings: cited from earlier work
[1] = MMV Malaria Box sheet, ref MMV data sheets
[2] = MMV Malaria Box sheet, ref MMV data sheets, read-out: EC50_nM
[3] = source StJude, ref ChEMBL_NTD, read-out: CHEMBL EC50
[4] = source GSK, ref ChEMBL_NTD, read-out: CHEMBL EC50
[5] = ChEMBL-NTD value per source (GNF, GSK, StJude), several values in a cell follow the order of the sources, read-out: CHEMBL EC50
[6] = MMV Malaria Box data sheet (supplement mmc2.xls), ref MMV data sheet
[7] = MMV Malaria Box data sheet (supplement mmc2.xls), ref MMV data sheet, read-out: EC50_nM
[8] = value(s) per source (GSK, GNF, StJude), separated by semicolon, ref ChEMBL-NTD, read-out: CHEMBL EC50
[9] = source GNF, ref ChEMBL_NTD, read-out: CHEMBL EC50
[10] = MMV Malaria Box data sheet, ref MMV data sheets, read-out: EC50_nM
[11] = MMV Malaria Box data sheet, ref MMV data sheets

Cc1ccc(C2CC(C(F)(F)F)n3nc(C(=O)N4CCN(C(c5ccccc5)c5ccccc5)CC4)cc3N2)cc1 (stereo not shown) [MMV000699]
percent_inh @ 5 uM [1]: 98%
pEC50 [2]: 6.34
pEC50 [3]: 6.17

Cc1ccnc(NC(c2cccc(OCc3ccccc3)c2)c2ccc3cccnc3c2O)c1 (stereo not shown) [MMV000720]
percent_inh @ 5 uM [1]: 97%
pEC50 [2]: 5.99
pEC50 [4]: 6.06
pEC50 [3]: 5.74

Oc1c(CN2CCN(c3ccccc3F)CC2)cc(Br)c2cccnc12 [MMV000760]
percent_inh @ 5 uM [1]: 91%
pEC50 [3]: 5.42

CCCOCc1cc(CN2CCN(c3cccc(Cl)c3)CC2)c(O)c2ncccc12 [MMV000787]
pEC50 [5]: 5.96

CC(C)OCc1cc(CN2CCN(c3cccc(Cl)c3)CC2)c(O)c2ncccc12 [MMV000788]
percent_inh @ 5 uM [6]: 98%
pEC50 [7]: 6.16
pEC50 [8]: 6.03

OC(CNCc1ccccc1)Cn1c2ccccc2c2ccccc21 (stereo not shown) [MMV000839]
percent_inh @ 5 uM [1]: 95%
pEC50 [2]: 5.97
pEC50 [3]: 5.43

OC(CNC1CCCC1)Cn1c2ccccc2c2ccccc21 (stereo not shown) [MMV000848]
percent_inh @ 5 uM [6]: 97%
pEC50 [7]: 6.18
pEC50 [8]: 5.97

Cc1ccc(NC(=O)Nc2cccc(Cl)c2)cc1F [MMV000911]
percent_inh @ 5 uM [6]: 52%
pEC50 [8]: 4.82

COc1ccc2c(c1OC)C(=O)N1c3ccccc3N=C(c3ccc(C)cc3)CC21 (stereo not shown) [MMV000917]
percent_inh @ 5 uM [1]: 93%
pEC50 [2]: 5.91
pEC50 [3]: 5.60

COc1ccc(Nc2nc(NCc3ccccc3)c3ccccc3n2)cc1 [MMV000963]
pEC50 [2]: 6.23
pEC50 [9]: 6.67
pEC50 [3]: 5.88

O=C1CC(O)(C(F)(F)C(F)(F)F)Oc2ccccc21 (stereo not shown) [MMV000972]
percent_inh @ 5 uM [1]: 95%
pEC50 [3]: 5.59

Cc1ccc(Nc2nc(NCCO)c3ccccc3n2)cc1C [MMV001038]
pEC50 [10]: 6.37
pEC50 [9]: 6.76
pEC50 [3]: 6.07

CC(C)c1ccc(CNCC(O)c2ccccc2)cc1 (stereo not shown) [MMV001049]
percent_inh @ 5 uM [1]: 96%
pEC50 [2]: 5.90
pEC50 [3]: 5.87

CCOc1cccc2sc(N(Cc3cccnc3)C(=O)C3CCCCC3)nc12 [MMV001230]
percent_inh @ 5 uM [6]: 94%
pEC50 [8]: 5.52

COc1ccc2sc(N(Cc3cccnc3)C(=O)c3ccc(C#N)cc3)nc2c1 [MMV001239]
pEC50 [5]: 4.82

COc1ccc(C)c2sc(N(Cc3cccnc3)C(=O)c3ccc(C#N)cc3)nc12 [MMV001241]
percent_inh @ 5 uM [1]: 91%
pEC50 [3]: 4.82

CSc1ccccc1C(=O)Nc1nc(-c2ccccn2)cs1 [MMV001246]
percent_inh @ 5 uM [11]: 98%
pEC50 [10]: 6.69
pEC50 [3]: 5.17

CCCCc1ccc(NS(=O)(=O)c2cc3c4c(c2)CCN4C(=O)CC3)cc1 [MMV001255]
percent_inh @ 5 uM [11]: 96%
pEC50 [10]: 6.27
pEC50 [3]: 4.82

O=C(Nc1ccc(Br)cc1)Nc1cccc(Cl)c1 [MMV001318]
percent_inh @ 5 uM [1]: 94%
pEC50 [3]: 4.82

CC1CC(C)CN(C(=O)c2ccc(Cl)cc2Cl)C1 (stereo not shown) [MMV001344]
percent_inh @ 5 uM [6]: 95%
pEC50 [7]: 6.12
pEC50 [8]: 5.88

CCN(CC)CCNc1ccnc2cc(Cl)ccc12 [MMV006087]
pEC50 [10]: 7.24
pEC50 [9]: 8.15

c1ccc(CNc2nc(Nc3ccccc3)nc3ccccc23)cc1 [MMV006169]
pEC50 [5]: 6.80

CN1CCN(c2ccc(Nc3c4ccccc4nc4ccccc34)cc2)CC1 [MMV006172]
percent_inh @ 5 uM [11]: 97%
pEC50 [10]: 6.85
pEC50 [9]: 7.25
pEC50 [4]: 6.19

O=C(NCc1ccco1)C1CCN(S(=O)(=O)c2ccc(Cl)cc2)CC1 [MMV006188]
percent_inh @ 5 uM [6]: 94%
pEC50 [7]: 6.05
pEC50 [8]: 6.29

Cc1cc(NCCN2CCCCC2)c2ccc3ccccc3c2n1 [MMV006203]
percent_inh @ 5 uM [11]: 99%
pEC50 [10]: 6.52
pEC50 [9]: 7.36

CCOC(=O)c1cnc2c(C)cccc2c1Nc1ccc(C(C)=O)cc1 [MMV006250]
percent_inh @ 5 uM [1]: 94%
pEC50 [2]: 6.50
pEC50 [9]: 6.93

CCc1c(C)c(=N)c2ccccc2n1C [MMV006278]
percent_inh @ 5 uM [11]: 76%
pEC50 [10]: 6.42
pEC50 [9]: 6.15

CCN(CC)CCNc1ccnc2cc3ccccc3cc12 [MMV006303]
pEC50 [5]: 7.54

CN(C)c1ccc(C=Cc2nc(=O)c3ccccc3o2)cc1 [MMV006309]
percent_inh @ 5 uM [11]: 96%
pEC50 [10]: 7.29
pEC50 [4]: 7.35

Cc1cc(Nc2cccc(F)c2)nc(NCc2ccccc2)n1 [MMV006319]
percent_inh @ 2 uM [1]: 97%
pEC50 [2]: 6.18
pEC50 [9]: 7.14

O=C1c2ccccc2C2=Nc3ccccc3SC(c3cccc(F)c3)C12 (stereo not shown) [MMV006389]
percent_inh @ 5 uM [1]: 94%
pEC50 [2]: 6.38
pEC50 [9]: 7.06

COc1cc(OC)c(N(C)C(=O)c2cc3c(s2)-c2ccccc2S(=O)(=O)C3)cc1Cl [MMV006427]
percent_inh @ 5 uM [11]: 100%
pEC50 [10]: 7.11
pEC50 [9]: 6.95

Cc1cc(NC(=O)C2c3ccccc3C(=O)N(CC(C)C)C2c2cccs2)no1 (stereo not shown) [MMV006429]
percent_inh @ 5 uM [11]: 100%
pEC50 [10]: 7.48
pEC50 [9]: 7.07

CCOC(=O)c1ccc2nc(-c3ccccc3)cc(O)c2c1 [MMV006457]
percent_inh @ 5 uM [11]: 96%
pEC50 [10]: 6.93
pEC50 [9]: 6.26

c1ccc2c(NCCc3c[nH]c4ccccc34)c3ccccc3nc2c1 [MMV006513]
percent_inh @ 5 uM [1]: 97%
pEC50 [2]: 6.52
pEC50 [9]: 7.07

CCOc1ccc2nc(C)cc(Nc3ccc(Br)cc3)c2c1 [MMV006522]
pEC50 [5]: 6.95

CCN(CC)CCNc1ncnc2c1[nH]c1ccc(Br)cc12 [MMV006545]
pEC50 [7]: 6.15
pEC50 [8]: 6.54

Cc1cc(C)c2c(c1)OCN(Cc1ccccc1Cl)C2 [MMV006558]
percent_inh @ 5 uM [11]: 98%
pEC50 [10]: 6.57
pEC50 [9]: 6.72

Clc1ccc2[nH]c3c(NCCCN4CCOCC4)ncnc3c2c1 [MMV006587]
pEC50 [7]: 6.15
pEC50 [8]: 6.96

CCOC(=O)C1=CN(C)C=C(C(=O)OCC)C1c1cc(Br)c(OCC)c(OC)c1 [MMV006656]
pEC50 [5]: 6.04

CN(C)CCNc1cc(-c2ccccc2)nc2ccccc12 [MMV006704]
percent_inh @ 2 uM [1]: 92%
pEC50 [2]: 5.40
pEC50 [9]: 6.16

Cc1cc(N2CCN(C3CCCC3)CC2)n2c(nc3ccccc32)c1C#N [MMV006706]
pEC50 [7]: 6.17
pEC50 [8]: 6.13

Cc1cc(=O)oc2c1ccc1oc(C(=O)c3ccccc3)c(C)c12 [MMV006753]
percent_inh @ 5 uM [1]: 94%
pEC50 [9]: 6.36

CCOc1c(Br)cc(C2C(C(=O)OC)=CN(C)C=C2C(=O)OC)cc1OC [MMV006764]
pEC50 [5]: 6.53

COc1cc2cc(C(=O)Nc3ccccc3)c(N)nc2cc1OC [MMV006767]
percent_inh @ 5 uM [6]: 99%

CC(C)CCNCC(O)Cn1c2ccccc2c2ccccc21 (stereo not shown) [MMV006787]
percent_inh @ 5 uM [1]: 97%
pEC50 [2]: 6.33
pEC50 [9]: 6.70

CCCCc1c(C)nc2c(OC)cccc2c1O [MMV006820]
percent_inh @ 2 uM [1]: 92%
pEC50 [2]: 5.40
pEC50 [9]: 5.77

COc1ccc(Nc2cc(C)nc(NCc3ccccc3)n2)cc1 [MMV006825]
pEC50 [5]: 6.82

c1ccc2cc3c(Nc4ccc(N5CCOCC5)cc4)ccnc3cc2c1 [MMV006861]
percent_inh @ 5 uM [11]: 97%
pEC50 [10]: 6.60
pEC50 [9]: 6.17

CCOC(=O)c1cnc2ccc(Cl)cc2c1NCCCN(C)C [MMV006882]
percent_inh @ 5 uM [1]: 98%
pEC50 [2]: 5.92
pEC50 [9]: 6.08

C=CCc1c(C)nc2ccccc2c1O [MMV006913]
percent_inh @ 5 uM [6]: 85%
pEC50 [7]: 5.89
pEC50 [8]: 6.15

Cc1ccc(-c2cc3nc4c(c(O)n3n2)CCCC4)cc1 [MMV006937]
percent_inh @ 5 uM [11]: 73%
pEC50 [10]: 6.40
pEC50 [9]: 5.80

O=C(Nc1ccc(-c2nc3cc(NC(=O)c4ccc(Cl)cc4)ccc3[nH]2)cc1)c1ccc(Cl)cc1 [MMV006962]
% inh. At 1.25 uM (1.25 uM, solubility issue at 5 uM): Solubility issue at 5 uM. % inh. At 1.25 uM is 48
pEC50 [5]: 6.00

CCOc1ccc2nc(C)cc(Nc3ccc(N(C)C)cc3)c2c1 [MMV007020]
pEC50 [5]: 6.46

Cc1ccc2c(C)nc(Nc3nc(C)cc(-c4ccccc4)n3)nc2c1 [MMV007041]
pEC50 [5]: 6.01

CCOc1ccc(CN2CCN(CC(O)COc3ccc(OCC(O)CN4CCN(Cc5ccc(OCC)cc5)CC4)cc3)CC2)cc1 (stereo not shown) [MMV007092]
pEC50 [5]: 5.86

c1ccc(C2=Nc3ccccc3N=C(c3ccccc3)c3ccccc32)cc1 [MMV007113]
pEC50 [5]: 6.17

CCOC(=O)c1cnc2ccc(CC)cc2c1O [MMV007116]
pEC50 [10]: 6.45
pEC50 [9]: 6.15

OC1=C2C(=Nc3ccccc3SC2c2ccc(Br)cc2)c2ccccc21 (stereo not shown) [MMV007127]
percent_inh @ 5 uM [1]: 97%
pEC50 [2]: 6.25
pEC50 [9]: 6.47

Cc1ccc(N2C3c4ccccc4N(S(=O)(=O)c4ccc(C)cc4)C2c2ccccc2N3S(=O)(=O)c2ccc(C)cc2)cc1 [MMV007160]
percent_inh @ 5 uM [11]: 97%
pEC50 [10]: 7.61
pEC50 [9]: 6.14

Cc1cc(Nc2ccc(OCc3ccccc3)cc2)nc2cc(O)ccc12 [MMV007181]
pEC50 [5]: 7.13

COc1ccccc1N1C(=N)SC(=Cc2ccc(OCc3ccccc3F)cc2)C1=O [MMV007199]
percent_inh @ 5 uM [1]: 95%
pEC50 [2]: 6.32

COc1ccc(OC)c(C2C3=C(CC(C)(C)CC3=O)N(c3ccc(Cl)c(Cl)c3)C3=C2C(=O)CC(C)(C)C3)c1 [MMV007208]
percent_inh @ 5 uM [1]: 90%
pEC50 [2]: 6.04
pEC50 [9]: 6.37

Cc1cccc(N2C(=O)C3C(C2=O)C2(c4ccccc4)C(=O)C3(c3ccccc3)C(c3ccc4c(c3)OCO4)=C2c2ccc3c(c2)OCO3)c1 (stereo not shown) [MMV007228]
pEC50 [5]: 5.97

Cc1ccc(F)cc1NC(=O)c1cc(Cl)ccc1Nc1ccccc1 [MMV007275]
pEC50 [5]: 6.72
